Converted amounts (≈) assume the structure as drawn. Where only a bound is given, the exact number is not on record here.

The conditions of this data set: buffer; pH 7.4; 200.0 µM.
In general, kinetic solubility refers to the concentration staying in solution when a stock, usually in DMSO, is diluted into the medium. `N#Cc1c(F)cccc1NCc1cccnc1` displayed a solubility (kinetic) of 33.2 µg/mL (≈ 146 µM).

In turn, `COc1ccccc1Cn1c(=S)[nH]c2ccccc2c1=O` yielded a kinetic solubility of 0.5 µg/mL (≈ 1.68 µM). Under `C=CCn1c(SCC(=O)NCC2CCCO2)nc2sc(CC)cc2c1=O` (centres undefined) stands more than 59 µg/mL. Under `CN(C)CCNC(=O)c1ccccc1-c1cc2ccccc2c(=O)o1` stands more than 50.5 µg/mL; under `N#CCOC(=O)/C=C/c1ccc2c(c1)OCO2`, 4.6 µg/mL (≈ 19.9 µM). Under `CN1CCN(c2ccc(Cl)cc2N)CC1` stands 30.6 µg/mL (≈ 136 µM); under `O=C(c1ccc(F)cc1)c1ccc(N2CCCCC2)cc1`, 3.6 µg/mL (≈ 12.7 µM). `O=C(NCc1ccco1)c1cccc(Br)c1` gave a solubility (kinetic) of 39 µg/mL (≈ 139 µM). Next, `O=C1Nc2ccccc2OCc2c1cccc2[N+](=O)[O-]`: 3.9 µg/mL (≈ 14.4 µM). Under `COCCCNC(=O)c1ccc(C2SCC(=O)N2Cc2ccco2)cc1` (centres undefined) stands 52.1 µg/mL (≈ 139 µM); under `O=C(OCC(=O)N1CCCC1)c1ccccc1O`, 36.1 µg/mL (≈ 145 µM).

In the case of `CCN(CC)C(=O)COc1c(-c2ccco2)oc2ccccc2c1=O`, the solubility (kinetic) is more than 51.2 µg/mL.

`CCO/C=C1/C(=O)N(c2ccc(OC)cc2)C(=O)c2ccccc21`: the solubility (kinetic) was more than 48.5 µg/mL. Next, `Cc1cc(C)nc(NC(=O)Nc2ccc(F)cc2F)n1`: 10.2 µg/mL (≈ 36.7 µM); `O=C(CNC(=O)c1ccc(Br)o1)NCC1COc2ccccc2O1` (centres undefined): more than 59.3 µg/mL. `COCCn1c(=S)[nH]c2sc3c(c2c1=O)CCCC3` showed a solubility (kinetic) of more than 44.5 µg/mL. Next, `O=C(COc1cccc(Cl)c1Cl)NC1CC1`: more than 39 µg/mL; `CSc1ccc(C(=O)C2CCCN(C)C2)cc1` (centres undefined): more than 37.4 µg/mL; `COc1ccc(Oc2ccccc2C#N)cc1`: 9.9 µg/mL (≈ 44 µM).

With `O=C(c1ccsc1)N1CCCC(Nc2ccc(F)c(F)c2)C1` (centres undefined), the solubility (kinetic) came to 44.5 µg/mL (≈ 138 µM). Next, `O=C(NC(=S)Nc1ccccc1F)C1CCCCC1`: 3 µg/mL (≈ 10.7 µM).

Molecule `Cc1nnc(SCC(=O)NC2CCCCCC2)n1C(C)C` had a solubility (kinetic) of more than 46.6 µg/mL.

`CNC(=O)CSc1nnc(-c2ccc3c(c2)OCO3)n1C`: the kinetic solubility was more than 46 µg/mL. Next, `O=C(Cc1ccccc1)NCc1ccccn1`: more than 33.9 µg/mL; `N/C(Cc1ccc([N+](=O)[O-])cc1)=N\OC(=O)c1ccco1`: 18 µg/mL (≈ 62.2 µM); `CN(C)c1ccc(N=Cc2cccn2C)cc1`: more than 34.1 µg/mL.

Regarding `Cc1cc(=O)[nH]c2c(C)cc(S(=O)(=O)N3CCCCC3)cc12`, the kinetic solubility was 2.6 µg/mL (≈ 8.11 µM). Under `CCCNC(=O)c1cnc(-c2ccccc2)nc1-c1ccccc1` stands 1 µg/mL (≈ 3.15 µM). Next, `CS(=O)(=O)N1CCCC(C(=O)Nc2ccccc2Cl)C1` (centres undefined): more than 47.5 µg/mL; `Cc1ccc(C(=O)CCC(=O)NC2CCCC(C)C2C)cc1` (centres undefined): 17.4 µg/mL (≈ 57.7 µM).

For `CC1C(=O)Nc2ccccc2N1C(=O)c1cccc(C(F)(F)F)c1` (centres undefined), the solubility (kinetic) is more than 50.1 µg/mL. Under `Oc1ccccc1C=NCCN=Cc1ccccc1O` stands 27.6 µg/mL (≈ 103 µM); under `CC1(C)Cc2c(sc(NC(=O)/C=C/C(=O)O)c2C#N)CO1`, 41.4 µg/mL (≈ 135 µM).

Consider `CS(=O)(=O)c1ccccc1C(=O)Nc1ccc(S(=O)(=O)N2CCCC2)cc1`, for which the kinetic solubility is more than 61.3 µg/mL. Turning to `Cc1ccc(Cl)c(Nc2ccccc2C(=O)[O-])c1Cl.[Na+]`, the solubility (kinetic) was more than 47.7 µg/mL.

`Cc1cccc(NC2=NCCCS2)c1` registered a solubility (kinetic) of more than 30.9 µg/mL. Next, `O=C(Nc1ccccc1)C1CCCN1/C=C/C(=O)C(F)(F)F` (centres undefined): more than 46.8 µg/mL; `CC(C)=Cc1oc2ccc([N+](=O)[O-])cc2c1N1CCOCC1`: less than 0.3 µg/mL; `Cc1ccc(NC(=O)C2CC(=O)N(Cc3ccco3)C2)cc1` (centres undefined): 39.7 µg/mL (≈ 133 µM). Under `Cc1cc(Br)ccc1OCCN1CCCC1.O=C(O)C(=O)O` stands more than 56.1 µg/mL. Under `CC(=O)N/C(=C\c1ccc(C)o1)C(=O)NCc1ccccc1` stands more than 44.8 µg/mL; under `O=C(Cc1ccc(Cl)cc1)Nc1cccnc1`, 23.3 µg/mL (≈ 94.4 µM); under `COc1cc(/C=C/C(=O)OCC(=O)NCc2ccc3c(c2)OCO3)cc(OC)c1OC`, 4.3 µg/mL (≈ 10 µM). The molecule `Cl.O=C(NCCCn1ccnc1)c1ccccc1F` gave a kinetic solubility of more than 42.6 µg/mL.

Molecule `O=[N+]([O-])c1ccc(CP(=O)(c2ccccc2)c2ccccc2)cc1` had a kinetic solubility of 8 µg/mL (≈ 23.7 µM). The molecule `O=C(OCc1ccc(Br)cc1)c1cccnc1` came in with a kinetic solubility of 40.5 µg/mL (≈ 139 µM). Molecule `COc1ccccc1CC(=O)OCC(=O)N1CCN(c2ccc(F)cc2)CC1` gave a solubility (kinetic) of more than 58 µg/mL.

In turn, `C[C@@H]1CC2(CCCC[N+]2(C)C)C[C@H]1C.[I-]` registered a kinetic solubility of more than 48.5 µg/mL. Under `O=C1C(CCS(=O)c2ccccc2)C(=O)N(c2ccccc2)N1c1ccccc1` (centres undefined) stands more than 60.7 µg/mL; under `COc1cc(SC)ccc1C(=O)NC1CCCc2ccccc21` (centres undefined), less than 0.7 µg/mL; under `COC(=O)c1c(C(C)=O)c(C)n(C)c1C`, more than 31.4 µg/mL. Next, `C=CCOc1ccc(C2NC(=O)c3ccccc3O2)cc1` (centres undefined): 1.3 µg/mL (≈ 4.62 µM); `Cc1c(O)ccc2c(CN3CCOCC3)cc(=O)oc12`: more than 41.3 µg/mL.

In turn, `Cc1ccc(OCCNC(=O)CNC(=O)c2ccc(C)cc2)cc1` had a solubility (kinetic) of 6.8 µg/mL (≈ 20.8 µM). `COc1ccc(OC)c(C2=NOC(C(=O)Nc3cc(C)on3)C2)c1` (centres undefined) registered a solubility (kinetic) of 44.1 µg/mL (≈ 133 µM). Under `Cc1ccc(F)cc1NC(=O)CCc1c(C)[nH]c(=O)c(C#N)c1C` stands more than 49.1 µg/mL. Under `C=CCSc1nc(N2CCOCC2)c2c(c1C#N)CC(C)(C)N(C)C2` stands 49.9 µg/mL (≈ 139 µM). Next, `Cc1cc(C)n2nc(SCC(=O)N3CCC(C(=O)O)CC3)nc2n1`: more than 52.4 µg/mL; `Cc1ccccc1NC(=O)c1cccc(C(=O)Nc2ccccc2C)n1`: 0.3 µg/mL (≈ 0.869 µM); `COc1cccc(NC(=O)C(Cc2ccccc2)n2cccc2)c1` (centres undefined): 27.2 µg/mL (≈ 84.9 µM).

`Cc1cc(=O)n2c3ccccc3n(C)c2n1` returned a solubility (kinetic) of more than 32 µg/mL. With `COC(=O)C(Cc1c[nH]c2ccccc12)NC(=O)C1CC1` (centres undefined), the solubility (kinetic) was more than 42.9 µg/mL. For `COc1ccc(NC(=O)CN2CCN(Cc3ccccc3)CC2)cc1`, the kinetic solubility is more than 50.9 µg/mL. For the molecule `Cc1cc(SCC(=O)[O-])nc2ccccc12`, the solubility (kinetic) was 31 µg/mL.

As for `O=C(CSc1nnc2ccccn12)NC(=O)c1cccc([N+](=O)[O-])c1`, the solubility (kinetic) is more than 53.6 µg/mL. Under `O=[N+]([O-])c1ccc(CNc2cccc(Cl)c2)s1` stands 6.3 µg/mL (≈ 23.4 µM). Under `CCn1c(=O)c(-c2nc3ccccc3[nH]2)c(O)c2ccccc21` stands less than 0.2 µg/mL; under `CCN1C(=O)C(O)(CC(=O)c2c(C)coc2C)c2ccccc21` (centres undefined), more than 47 µg/mL; under `COc1ccc(C(=O)OCc2cc(=O)n3ccsc3n2)cc1F`, 4 µg/mL (≈ 12 µM). Under `O=C(Nc1ccc(Br)cc1)c1ccc2c(c1)OCO2` stands 1.3 µg/mL (≈ 4.06 µM); under `Cc1cc(C)c2c(N)c(C(=O)c3ccccc3Cl)sc2n1`, 0.4 µg/mL (≈ 1.26 µM); under `O=C(NCc1ccc2c(c1)OCO2)C1CCCCC1`, more than 39.2 µg/mL. Consider `CC(=O)Nc1ccc(C2NC(=O)CCC2[N+](=O)[O-])cc1` (centres undefined), for which the solubility (kinetic) came to 31.7 µg/mL (≈ 114 µM). Next, `CSc1nc2cc(Oc3cccc(Cl)c3Cl)c(Cl)cc2[nH]1`: 0.5 µg/mL (≈ 1.39 µM). Next, `CN(C)C(CNC(=O)c1cc(-c2ccco2)nc2ccccc12)c1ccccc1` (centres undefined): 33.9 µg/mL (≈ 87.9 µM); `O=C(Cn1cc([N+](=O)[O-])ccc1=O)Nc1ccc2c(c1)OCO2`: 15.8 µg/mL (≈ 49.8 µM). Under `Cc1nc2c(ccc3c([N+](=O)[O-])cccc32)c(C)c1C` stands 0.8 µg/mL (≈ 3 µM); under `COc1ccc(N2C(=O)c3ccccc3C(C)(C)C2=O)cc1`, 5.4 µg/mL (≈ 18.3 µM). As for `O=C(O)CC(NC(=O)C1CCCCC1)c1cc([N+](=O)[O-])ccc1Cl` (centres undefined), the kinetic solubility was more than 53.2 µg/mL.

Turning to `CCOc1ccccc1-n1cnc(C#N)c1N`, the kinetic solubility is more than 34.2 µg/mL. Under `CC1CCN(C(=O)c2ccc(N3CCOCC3)c([N+](=O)[O-])c2)CC1` stands more than 50 µg/mL; under `Nc1cc([N+](=O)[O-])cc2oc(-c3ccccc3)cc12`, less than 0.3 µg/mL. Next, `COc1ccc(OC)c(S(=O)(=O)NCC(=O)O)c1`: 34.1 µg/mL (≈ 124 µM); `O=C(COc1ccccc1Cl)Nc1ccc2c(c1)C(=O)NC2=O`: less than 0.4 µg/mL. Next, `CCOc1ccccc1NC(=O)CN1CCCCCC1.Cl`: 32.9 µg/mL.

`CC(C)N(C(=O)c1ccc(-c2ccccc2F)cc1)C(C)C` had a solubility (kinetic) of 23.4 µg/mL (≈ 78.2 µM).

As to `O=C(COC(=O)c1ccc(Cl)nc1)NCc1cccs1`, the solubility (kinetic) came to 25.2 µg/mL (≈ 81.1 µM).

Molecule `Cn1c2c(c(=O)n(C)c1=O)C(CC(=O)Nc1ccccc1F)C(=O)N2` (centres undefined) gave a kinetic solubility of more than 51.9 µg/mL. Next, `COc1ccc(OC)c(NC(=O)NCc2cccnc2)c1`: more than 43.1 µg/mL. Under `Cc1ccc(C(=O)N/C(=C\c2ccc(C)o2)C(=O)O)cc1` stands more than 42.8 µg/mL; under `O=C(Nc1ccccc1)Nc1scc2c1c(=O)oc1ccccc12`, less than 0.4 µg/mL. Under `CCCN1CCOC(CC(=O)Nc2ccc([N+](=O)[O-])cc2)C1=O` (centres undefined) stands 38 µg/mL (≈ 118 µM); under `O=C(c1ccc(Cl)cc1[N+](=O)[O-])N1CCc2ccccc2C1`, 6.1 µg/mL (≈ 19.3 µM).

As for `CN(C)C(=S)Nc1ccc(Cl)cc1`, the kinetic solubility was more than 32.2 µg/mL. Turning to `CC(NC(=O)C1CCCC1)c1ccc(Br)cc1` (centres undefined), the kinetic solubility was found to be 33.4 µg/mL (≈ 113 µM). `COCCCNc1ccc([N+](=O)[O-])cc1C(=O)Nc1cccc(C)n1`: the solubility (kinetic) is 2.9 µg/mL (≈ 8.42 µM). Under `COc1ccc(NC(=O)C#Cc2ccccc2)cc1OC` stands 37.6 µg/mL (≈ 134 µM); under `Fc1cccc(NC(=S)NC2CCCCCCC2)c1`, 2.9 µg/mL (≈ 10.3 µM); under `COc1ccc(NC(C)=O)cc1S(=O)(=O)Nc1ccc(S(=O)(=O)N2CCCCC2)cc1`, more than 70.1 µg/mL. Next, `Cl.Clc1ccccc1CSC1=NCCN1`: more than 39.5 µg/mL; `COc1ccc(OCCC(=O)OCC(=O)NC2CCCCC2)cc1`: 37 µg/mL (≈ 110 µM).

`CCNC(=O)CC1C(=O)N(c2ccc(OC)cc2)C(=O)N1CCOC` (centres undefined) yielded a kinetic solubility of more than 52.4 µg/mL. Next, `Cc1cccc(OCC(=O)NCC(C)(C)N2CCOCC2)c1`: more than 46 µg/mL; `Cc1ccc(C)c(NC(=O)Cn2cnc3c(oc4ccccc43)c2=O)c1`: less than 0.2 µg/mL.

These data come from PubChem BioAssay AID1996.
